Where “and” joins values, the source holds several entries; their conditions need not be identical. Equal entries are not always repeated.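 Interpolation was linear, between the two tested concentrations surrounding the appropriate level; five concentrations were tested over 48 hours in 96-well plates. GI50 = concentration required for 50% inhibition of growth. The concentration for full growth arrest is given as TGI.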
Experiments:
Assay in all cases: NCI tumour cell line growth inhibition, 48 h
ACHN renal = tested on: ACHN renal
HCT-15 colon = tested on: HCT-15 colon
HOP-18 NSCLC = tested on: HOP-18 NSCLC
HOP-62 NSCLC = tested on: HOP-62 NSCLC
IGROV1 ovarian = tested on: IGROV1 ovarian
KM12 colon = tested on: KM12 colon
M19-MEL melanoma = tested on: M19-MEL melanoma
RPMI-8226 leukemia = tested on: RPMI-8226 leukemia
SF-539 CNS = tested on: SF-539 CNS
UO-31 renal = tested on: UO-31 renal

Structure (SMILES) | TGI (ACHN renal) | TGI (HCT-15 colon) | TGI (HOP-18 NSCLC) | TGI (HOP-62 NSCLC) | TGI (IGROV1 ovarian) | TGI (KM12 colon) | TGI (M19-MEL melanoma) | TGI (RPMI-8226 leukemia) | TGI (SF-539 CNS) | TGI (UO-31 renal) | GI50 (HCT-15 colon) | GI50 (HOP-62 NSCLC) | GI50 (IGROV1 ovarian) | GI50 (KM12 colon) | GI50 (RPMI-8226 leukemia) | GI50 (SF-539 CNS) | GI50 (UO-31 renal) | GI50 (ACHN renal)
CCCCNC(=S)OCCC(C)CCCC(C)C (configuration not stated) | > 100 µM | > 100 µM | > 100 µM | > 100 µM | > 100 µM | > 100 µM | > 100 µM | > 100 µM | > 100 µM | > 100 µM |  |  |  |  |  |  |  | 
COc1cc(/C=C(\NC(=O)c2ccccc2)c2nc3ncncc3[nH]2)cc(OC)c1OC | > 100 µM | > 100 µM |  |  | > 100 µM | > 100 µM | > 100 µM |  | > 100 µM | > 100 µM |  |  |  |  |  |  |  | 
N#C/C(=C1\OC(=N)C(c2ccccc2)C1=O)c1ccccc1 (configuration not stated) | 31.8 µM | 60.2 µM | 92.3 µM | > 100 µM | > 80.7 µM | > 100 µM | 56.5 µM | 73.3 µM | > 31.6 µM | 42.8 µM |  |  |  |  |  |  |  | 
O=C(CCC(=O)Nc1cccc(C(F)(F)F)c1)CC(=O)c1ccc2ccccc2c1 | > 100 µM | > 100 µM | > 100 µM |  | > 100 µM | > 100 µM | > 100 µM | > 100 µM | > 100 µM | > 100 µM |  |  |  |  |  |  |  | 
Nc1nc2c(-c3ccc([N+](=O)[O-])cc3)nnn2c2ccccc12 | > 100 µM | > 100 µM | > 100 µM | > 100 µM | > 100 µM | > 100 µM | > 100 µM | > 100 µM | > 100 µM | > 100 µM |  |  |  |  |  |  |  | 
NS(=O)(=O)c1ccc(NC(=O)C2C(=O)C(=O)N(c3ccc(S(N)(=O)=O)cc3)C2=O)cc1 (configuration not stated) | > 100 µM | > 100 µM | > 100 µM | > 100 µM | > 100 µM |  | > 100 µM | > 100 µM | > 100 µM | > 100 µM |  |  |  |  |  |  |  | 
O=C1NC2(CCCCC2)C(=O)N1CCN(CCCl)CCCl | 25 µM | > 242 µM | > 250 µM | > 25 µM and 149 µM |  | > 194 µM | > 250 µM | > 250 µM | > 250 µM | > 250 µM | > 25 µM and 200 µM | > 25 µM | 17.7 µM | > 25 µM | > 25 µM | > 25 µM | > 25 µM | 
O=C(N=c1nc(NC(=O)c2ccccc2)ss1)c1ccccc1 | 31.6 µM | > 100 µM |  | > 100 µM | > 100 µM | > 100 µM | > 100 µM | 77.6 µM | 37.9 µM | 62.8 µM |  |  |  |  |  |  |  | 
COc1ccc(O)cc1C(O)c1ccccc1 (configuration not stated) | > 100 µM | > 100 µM | > 100 µM | > 100 µM | > 100 µM | > 100 µM | > 100 µM |  | > 100 µM | > 100 µM |  |  |  |  |  |  |  | 
CC1C=CC(C(N)C(=O)O)O1 (configuration not stated) | > 100 µM | > 100 µM |  | > 100 µM | > 100 µM | > 100 µM | > 100 µM | > 100 µM | > 100 µM | > 100 µM |  |  |  |  |  |  |  | 
CC(C)COC1Sc2ccccc2S1 | 30 µM | 66 µM | 30.2 µM | 41.3 µM | 32.3 µM |  |  | > 100 µM |  | 29.4 µM |  |  |  |  |  |  |  | 
CCCCCCCCCCCCCCCC(=O)OCCOCCOCCOCCOCCOC(=O)CCCCCCCCCCCCCCC | > 100 µM | > 100 µM | > 100 µM | > 100 µM | > 100 µM | > 100 µM | > 100 µM | > 100 µM |  | > 100 µM |  |  |  |  |  |  |  | 
O=C1Nc2ccccc2/C1=C\c1nc(-c2ccccc2F)n2ccccc12 | 10.9 µM | > 100 µM |  | 5.93 µM | 12.5 µM | 14.4 µM |  | > 100 µM | 11.1 µM | 10.8 µM | 13 µM | 2.37 µM | 2.04 µM | 3.49 µM | 51.4 µM | 3.1 µM | 2.12 µM | 3.3 µM
O=C(Nc1ccc(Cl)cc1C(=O)O)c1ccc([N+](=O)[O-])cc1 | 49.6 µM | 46.3 µM |  | 39.2 µM | 45.5 µM | 36.2 µM | 55.9 µM | 97.3 µM | 37.5 µM | 44.1 µM |  |  |  |  |  |  |  | 
CCC(=O)N1C/C(=C/c2ccc(Br)cc2)C(=O)/C(=C/c2ccc(Br)cc2)C1 | 1.87 µM | 1.31 µM |  | 0.829 µM | 2.27 µM | 0.553 µM |  |  | 1.79 µM | 1.5 µM | 0.295 µM | 0.259 µM | 0.766 µM | 0.186 µM | < 0.0497 µM | 0.706 µM | 0.607 µM | 0.694 µM
Cc1ccc(-c2nc(-c3nccc4ccccc34)oc2-c2ccccc2)cc1 | > 100 µM | > 100 µM |  | > 100 µM | > 100 µM | > 100 µM |  | > 100 µM | > 100 µM | > 100 µM |  |  |  |  |  |  |  | 
CC[C@H](C)[C@H](NC(=O)[C@H]1CCCCN1C)C(=O)N(C)[C@H](C[C@@H](OC(C)=O)c1cccc(C(=O)N[C@@H](Cc2ccccc2)C[C@H](C)C(=O)O)n1)C(C)C | > 25 µM | > 25 µM |  | > 25 µM | > 25 µM | > 25 µM |  | > 25 µM | 0.00742 µM and < 0.0025 µM | > 25 µM | 0.0064 µM and 0.0025 µM | 0.00275 µM and 0.0025 µM | 0.0038 µM and 0.0025 µM | 0.00116 µM and 0.0025 µM | 0.000816 µM and 0.0025 µM | 0.00148 µM and < 0.0025 µM |  | 0.00787 µM and 0.0025 µM
COc1ccc(C(=O)c2cc3c(N)c(C(=O)Nc4cccc(Br)c4C)sc3nc2C)cc1 | > 100 µM | > 100 µM |  | > 100 µM | > 100 µM | > 36.3 µM |  |  | 0.0809 µM | > 100 µM | 0.0489 µM | 0.0729 µM | 0.0869 µM | 0.0684 µM | 0.037 µM | 0.0256 µM | 0.219 µM | 0.0693 µM

From PubChem BioAssay (NCI)
